From patent publication US9464082B2, “Aryl and arylalkyl substituted pyrazolyl and pyrimidinyl tricyclic enones as antioxidant inflammation modulators” (AbbVie Inc., priority 2014, dated 2016)
pIC50: −log10 of the molar value.

Tested on: IFNγ-Induced NO Production
Experiment: Nitric Oxide Suppression Assay (Suppression of IFNγ-Induced NO Production)
Assay type: cell-based
Conditions: RAW264.7; RAW 264.7 mouse macrophage cells; 2 hour pre-treatment with compound (3 μM to 0.3 nM, 10 point curve); 20 ng/mL interferon gamma, ~18 hour; Griess detection; n=2-3 in duplicates
In short: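 Griess-based absorbance read (520–550 nm) of supernatant after RAW 264.7 mouse macrophages received 10-point compound dilutions (3 μM–0.3 nM, DMSO ≤1%) for 2 h, then 20 ng/mL IFNγ for ~18 h at 37 °C. Signal normalised to IFNγ-only peak; IC50 fitted to mean of n=2-3 duplicates.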

Structure (SMILES)	pIC50
C[C@@H]1C(=O)C(C#N)=C[C@]2(c3ccc(O)cc3)c3ncncc3CC[C@@H]12 [Example 121, (6aS,7S,10aR)-10a-(4-hydroxyphenyl)-7-methyl-8-oxo-5,6,6a,7,8,10a-hexahydrobenzo[h]quinazoline-9-carbonitrile]	8.07
Cc1nc(-c2cnn(CCO)c2)c2c(n1)[C@@]1(c3ccccc3)C=C(C#N)C(=O)[C@@H](C)[C@@H]1CC2 [Example 127, (6aS,7S,10aR)-4-[1-(2-hydroxyethyl)-1H-pyrazol-4-yl]-2,7-dimethyl-8-oxo-10a-phenyl-5,6,6a,7,8,10a-hexahydrobenzo[h]quinazoline-9-carbonitrile]	8.64
Cc1nc(-c2cncnc2)c2c(n1)[C@@]1(c3cccc(F)c3)C=C(C#N)C(=O)[C@@H](C)[C@@H]1CC2 [Example 69, (6aS,7S,10aR)-10a-(3-fluorophenyl)-2,7-dimethyl-8-oxo-4-(pyrimidin-5-yl)-5,6,6a,7,8,10a-hexahydrobenzo[h]quinazoline-9-carbonitrile]	7.45
C[C@@H]1C(=O)C(C#N)=C[C@]2(c3cccc(OCc4ccccc4)c3)c3ncncc3CC[C@@H]12 [Example 128, (6aS,7S,10aR)-10a-[3-(benzyloxy)phenyl]-7-methyl-8-oxo-5,6,6a,7,8,10a-hexahydrobenzo[h]quinazoline-9-carbonitrile]	8.11
C[C@@H]1C(=O)C(C#N)=C[C@]2(c3ccccc3)c3nc(-c4c(F)cccc4F)ncc3CC[C@@H]12 [Example 74, (6aS,7S,10aR)-2-(2,6-difluorophenyl)-7-methyl-8-oxo-10a-phenyl-5,6,6a,7,8,10a-hexahydrobenzo[h]quinazoline-9-carbonitrile]	8.03
C[C@@H]1C(=O)C(C#N)=C[C@]2(c3ccccc3)c3nn(C)c(-c4cccc(-c5ccc(NS(C)(=O)=O)cc5)c4)c3CC[C@@H]12 [Example 169, N-{3′-[(5aS,6S,9aR)-8-cyano-2,6-dimethyl-7-oxo-9a-phenyl-4,5,5a,6,7,9a-hexahydro-2H-benzo[g]indazol-3-yl]biphenyl-4-yl}methanesulfonamide]	8.06
C[C@@H]1C(=O)C(C#N)=C[C@]2(c3ccccc3)c3nn(C)c(-c4ccnnc4)c3CC[C@@H]12 [Example 97, (5aS,6S,9aR)-2,6-dimethyl-7-oxo-9a-phenyl-3-(pyridazin-4-yl)-4,5,5a,6,7,9a-hexahydro-2H-benzo[g]indazole-8-carbonitrile]	7.82
C[C@@H]1C(=O)C(C#N)=C[C@]2(c3ccccc3)c3n[nH]c(-c4ccc(CCO)cc4)c3CC[C@@H]12 [Example 115, (5aS,6S,9aR)-3-[4-(2-hydroxyethyl)phenyl]-6-methyl-7-oxo-9a-phenyl-4,5,5a,6,7,9a-hexahydro-2H-benzo[g]indazole-8-carbonitrile]	7.63
COC(=O)CCc1cccc(-c2nc(C)nc3c2CC[C@H]2[C@H](C)C(=O)C(C#N)=C[C@]32c2ccccc2)c1 [Example 154, methyl 3-{3-[(6aS,7S,10aR)-9-cyano-2,7-dimethyl-8-oxo-10a-phenyl-5,6,6a,7,8,10a-hexahydrobenzo[h]quinazolin-4-yl]phenyl}propanoate]	7.32
Cc1nc(-c2ccc3nccn3c2)c2c(n1)[C@@]1(c3ccccc3)C=C(C#N)C(=O)[C@@H](C)[C@@H]1CC2 [Example 107, (6aS,7S,10aR)-4-(imidazo[1,2-a]pyridin-6-yl)-2,7-dimethyl-8-oxo-10a-phenyl-5,6,6a,7,8,10a-hexahydrobenzo[h]quinazoline-9-carbonitrile]	7.97
Cc1noc(-c2ccc(-c3ncc4c(n3)[C@@]3(c5ccccc5)C=C(C#N)C(=O)[C@@H](C)[C@@H]3CC4)cc2)n1 [Example 173, (6aS,7S,10aR)-7-methyl-2-[4-(3-methyl-1,2,4-oxadiazol-5-yl)phenyl]-8-oxo-10a-phenyl-5,6,6a,7,8,10a-hexahydrobenzo[h]quinazoline-9-carbonitrile]	7.71
Cc1nc(O)c2c(n1)[C@@]1(c3ccccc3)C=C(C#N)C(=O)[C@@H](C)[C@@H]1CC2 [Example 20, (6aS,7S,10aR)-4-hydroxy-2,7-dimethyl-8-oxo-10a-phenyl-5,6,6a,7,8,10a-hexahydrobenzo[h]quinazoline-9-carbonitrile]	7.35
C[C@@H]1C(=O)C(C#N)=C[C@]2(c3ccccc3)c3c(cnn3Cc3ccc(Br)cc3)CC[C@@H]12 [Example 65, (5aS,6S,9aR)-1-(4-bromobenzyl)-6-methyl-7-oxo-9a-phenyl-4,5,5a,6,7,9a-hexahydro-1H-benzo[g]indazole-8-carbonitrile]	6.96
C[C@@H]1C(=O)C(C#N)=C[C@]2(c3ccccc3)c3nn(C)c(-c4cccc(-c5ccc(O)cc5)c4)c3CC[C@@H]12 [Example 170, (5aS,6S,9aR)-3-(4′-hydroxybiphenyl-3-yl)-2,6-dimethyl-7-oxo-9a-phenyl-4,5,5a,6,7,9a-hexahydro-2H-benzo[g]indazole-8-carbonitrile]	8.16
C[C@@H]1C(=O)C(C#N)=C[C@]2(c3ccccc3)c3nn(C(=O)c4cscn4)cc3CC[C@@H]12 [Example 40, (5aS,6S,9aR)-6-methyl-7-oxo-9a-phenyl-2-(1,3-thiazol-4-ylcarbonyl)-4,5,5a,6,7,9a-hexahydro-2H-benzo[g]indazole-8-carbonitrile]	7.34
COc1ccc([C@]23C=C(C#N)C(=O)[C@@H](C)[C@@H]2CCc2c(-c4ccc5[nH]cnc5c4)nc(C)nc23)cc1 [Example 90, (6aS,7S,10aR)-4-(1H-benzimidazol-5-yl)-10a-(4-methoxyphenyl)-2,7-dimethyl-8-oxo-5,6,6a,7,8,10a-hexahydrobenzo[h]quinazoline-9-carbonitrile]	8.14
Cc1nc(-c2cccc(CCCO)c2)c2c(n1)[C@@]1(c3ccccc3)C=C(C#N)C(=O)[C@@H](C)[C@@H]1CC2 [Example 110, (6aS,7S,10aR)-4-[3-(3-hydroxypropyl)phenyl]-2,7-dimethyl-8-oxo-10a-phenyl-5,6,6a,7,8,10a-hexahydrobenzo[h]quinazoline-9-carbonitrile]	8.81
CCN(CC)c1ncc2c(n1)[C@@]1(c3ccccc3)C=C(C#N)C(=O)[C@@H](C)[C@@H]1CC2 [Example 30, (6aS,7S,10aR)-2-(diethylamino)-7-methyl-8-oxo-10a-phenyl-5,6,6a,7,8,10a-hexahydrobenzo[h]quinazoline-9-carbonitrile]	7.25
Cc1nc(-c2cccc(CCC(N)=O)c2)c2c(n1)[C@@]1(c3ccccc3)C=C(C#N)C(=O)[C@@H](C)[C@@H]1CC2 [Example 156, 3-{3-[(6aS,7S,10aR)-9-cyano-2,7-dimethyl-8-oxo-10a-phenyl-5,6,6a,7,8,10a-hexahydrobenzo[h]quinazolin-4-yl]phenyl}propanamide]	8.45
C[C@@H]1C(=O)C(C#N)=C[C@]2(c3cccc(C(=O)O)c3)c3nc(-c4ccccc4)ncc3CC[C@@H]12 [Example 100, 3-[(6aS,7S,10aR)-9-cyano-7-methyl-8-oxo-2-phenyl-6,6a,7,8-tetrahydrobenzo[h]quinazolin-10a(5H)-yl]benzoic acid]	6.37
COc1ccc([C@]23C=C(C#N)C(=O)[C@@H](C)[C@@H]2CCc2c(-c4ccc(-c5ccn[nH]5)cc4)nc(C)nc23)cc1 [Example 80, (6aS,7S,10aR)-10a-(4-methoxyphenyl)-2,7-dimethyl-8-oxo-4-[4-(1H-pyrazol-5-yl)phenyl]-5,6,6a,7,8,10a-hexahydrobenzo[h]quinazoline-9-carbonitrile]	8.13
C[C@@H]1C(=O)C(C#N)=C[C@]2(c3ccccc3)c3nc(-c4cnccn4)ncc3CC[C@@H]12 [Example 84, (6aS,7S,10aR)-7-methyl-8-oxo-10a-phenyl-2-(pyrazin-2-yl)-5,6,6a,7,8,10a-hexahydrobenzo[h]quinazoline-9-carbonitrile]	8.17
CC(C)Oc1nc(-c2ccccc2F)nc2c1CC[C@H]1[C@H](C)C(=O)C(C#N)=C[C@]21c1ccccc1 [Example 31, (6aS,7S,10aR)-2-(2-fluorophenyl)-4-isopropoxy-7-methyl-8-oxo-10a-phenyl-5,6,6a,7,8,10a-hexahydrobenzo[h]quinazoline-9-carbonitrile]	6.57
CCNc1ncc2c(n1)[C@@]1(c3ccccc3)C=C(C#N)C(=O)[C@@H](C)[C@@H]1CC2 [Example 12, (6aS,7S,10aR)-2-(ethylamino)-7-methyl-8-oxo-10a-phenyl-5,6,6a,7,8,10a-hexahydrobenzo[h]quinazoline-9-carbonitrile]	7.62
Cc1ncc2c(n1)[C@@]1(c3ccccc3)C=C(C#N)C(=O)[C@@H](C)[C@@H]1CC2 (racemic) [Example 33, rac-(6aS,7S,10aR)-2,7-dimethyl-8-oxo-10a-phenyl-5,6,6a,7,8,10a-hexahydrobenzo[h]quinazoline-9-carbonitrile]	7.64
C[C@@H]1C(=O)C(C#N)=C[C@]2(c3ccc(F)cc3)c3ncncc3CC[C@@H]12 [Example 50, (6aS,7S,10aR)-10a-(4-fluorophenyl)-7-methyl-8-oxo-5,6,6a,7,8,10a-hexahydrobenzo[h]quinazoline-9-carbonitrile]	7.99
C[C@@H]1C(=O)C(C#N)=C[C@]2(c3ccccc3)c3nn(C)c(-c4cccc(Br)c4)c3CC[C@@H]12 [Example 148, (5aS,6S,9aR)-3-(3-bromophenyl)-2,6-dimethyl-7-oxo-9a-phenyl-4,5,5a,6,7,9a-hexahydro-2H-benzo[g]indazole-8-carbonitrile]	7.50
